For series [1] the following is noted: aqueous buffers as are used here; cited from earlier work.
Series [2] concerns the target T1, α(2,6)sialyltransferase (EC 2.4.99.1) (Bos taurus, UniProt O18974).
T1 construct: literature kinetics (Beyer, Paulson) and synthesis tests
T1 sequence (O18974 1-405): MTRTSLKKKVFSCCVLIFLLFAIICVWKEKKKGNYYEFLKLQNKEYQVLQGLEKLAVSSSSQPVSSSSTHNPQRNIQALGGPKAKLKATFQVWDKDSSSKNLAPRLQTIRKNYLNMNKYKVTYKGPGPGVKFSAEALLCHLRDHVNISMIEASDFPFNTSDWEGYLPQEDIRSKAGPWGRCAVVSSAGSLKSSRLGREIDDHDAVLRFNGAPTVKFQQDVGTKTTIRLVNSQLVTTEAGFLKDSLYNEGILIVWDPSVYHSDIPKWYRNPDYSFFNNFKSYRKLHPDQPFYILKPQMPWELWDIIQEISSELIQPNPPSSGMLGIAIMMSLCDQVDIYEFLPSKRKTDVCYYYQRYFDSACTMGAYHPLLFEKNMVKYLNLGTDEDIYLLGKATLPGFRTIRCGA
Kind of series: Sialylation of prepared galactosyl glycosides by the sialyltransferase. It counts as biochemical, bovine. The conditions noted are these: one pot reaction, result in words. Here is the method:
A representative synthesis of Neu5Acα(2,6)-LacNAc (Compound 1) is discussed below. To a 1.07 mL HEPES buffer (0.2M, 20 mM MgCl2, 5.3 mM MnCl2, 20 mM KCl, pH 7.5) containing 12.3 mg Neu5Ac (20 mM; provided by Dr. U. Kragl, Research Center, Julich, Germany), 180 mg Lac (250 mM), 265 mg GlcNAc (600 mM), 30.2 mg PEP (trisodium salt, 40 mM), CMP (2 mM) and ATP (0.2 mM) were added myokinase (MK, EC 2.7.4.3; 6 U), pyruvate kinase (PK, EC 2.7.1.40; 80 U), inorganic pyrophosphatase (PPase, EC 3.6.1.1; 4 U), CMP-Neu5Ac synthetase (EC 2.7.43; 0.32 U), α(2,6)sialyltransferase (EC 2.4.99.1; 0,052 U) and 1 mg of crude β-galactosidase (EC 3.2.1.23) from Bacillus Circulans (provided by Daiwa Kasei KK, Osaka, Japan). The total volume was adjusted to 2 mL.
In a similar manner, the sialylated saccharide (Compound 2) was also prepared. […] Compound 10 was prepared as follows.

Series [3] deals with T2, α(2,3)sialyltransferase (EC 2.4.99.4) (Sus scrofa, UniProt Q02745).
T2 sequence (Q02745 1-343): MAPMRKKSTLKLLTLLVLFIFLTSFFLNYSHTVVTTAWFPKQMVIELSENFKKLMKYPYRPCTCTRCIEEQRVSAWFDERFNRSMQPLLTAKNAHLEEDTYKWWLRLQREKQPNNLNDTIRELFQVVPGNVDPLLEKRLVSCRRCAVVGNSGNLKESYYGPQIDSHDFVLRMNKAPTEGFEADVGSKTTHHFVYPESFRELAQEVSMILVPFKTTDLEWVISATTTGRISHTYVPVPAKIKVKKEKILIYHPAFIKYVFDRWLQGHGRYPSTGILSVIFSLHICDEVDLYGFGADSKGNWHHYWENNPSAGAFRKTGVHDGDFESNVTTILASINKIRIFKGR
The conditions noted are these: Table 1; cited from earlier work.

Series [4] deals with T3, α(2,6)sialyltransferase, rat liver (Rattus norvegicus, UniProt P13721).
T3 sequence (P13721 1-403): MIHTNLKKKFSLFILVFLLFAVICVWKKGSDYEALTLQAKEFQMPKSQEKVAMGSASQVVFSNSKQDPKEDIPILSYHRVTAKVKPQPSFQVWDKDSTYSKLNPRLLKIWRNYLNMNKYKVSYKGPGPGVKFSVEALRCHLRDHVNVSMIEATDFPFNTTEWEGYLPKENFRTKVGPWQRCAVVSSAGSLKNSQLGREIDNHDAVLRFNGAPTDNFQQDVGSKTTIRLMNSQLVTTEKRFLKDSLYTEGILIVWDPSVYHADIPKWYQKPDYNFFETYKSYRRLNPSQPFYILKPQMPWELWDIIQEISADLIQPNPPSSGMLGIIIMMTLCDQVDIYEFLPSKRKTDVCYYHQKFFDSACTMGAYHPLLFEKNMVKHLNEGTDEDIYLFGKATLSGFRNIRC
The following applies: cited from earlier work; for substrate quality / sialylated product formation: Table 1 footnotes 4 and 5, rat liver α(2,6)sialyltransferase, Weinstein et al.

Series [5] addresses T3, α(2,6)sialyltransferase, rat liver. The series can be described thus: Km and Vmax of acceptor molecules for rat liver α(2,6)sialyltransferase. Type of series: biochemical. The conditions noted are these: Table 1, footnoted values approximated from Weinstein et al.
Source text: Km is the Michaelis constant in units of moles/liter. Vmax is the reaction velocity at a constant concentration of enzyme, and is in units of enzyme units/milligram, one enzyme unit being that amount of enzyme that will catalyze the transformation of one micromole of substrate per minute under optimal conditions. The value of Km /Vmax is the slope of the line obtained from a Lineweaver-Burk plot.
Values for Km and Vmax for several galactosyl glycosides are available in the published literature and can be obtained using well known enzymatic techniques.
The target of series [6] is T4, α(2,3)sialyltransferase (EC 2.4.99.6) (Rattus norvegicus, UniProt Q02734).
T4 sequence (Q02734 1-374): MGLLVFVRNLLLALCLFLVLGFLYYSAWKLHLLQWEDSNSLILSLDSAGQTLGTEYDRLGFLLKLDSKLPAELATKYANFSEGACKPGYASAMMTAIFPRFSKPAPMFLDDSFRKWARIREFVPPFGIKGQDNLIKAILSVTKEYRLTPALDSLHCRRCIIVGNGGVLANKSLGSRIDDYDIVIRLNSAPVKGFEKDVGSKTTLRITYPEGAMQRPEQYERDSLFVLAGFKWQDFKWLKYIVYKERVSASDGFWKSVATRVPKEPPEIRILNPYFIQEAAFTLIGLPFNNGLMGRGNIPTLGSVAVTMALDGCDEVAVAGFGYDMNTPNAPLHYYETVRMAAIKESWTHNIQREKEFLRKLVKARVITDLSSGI
The following applies: Table 1; cited from earlier work.

Series [7] addresses T1, α(2,6)sialyltransferase (EC 2.4.99.1). The following applies: cited from earlier work.
In series [8] the test system is B. circulans β-galactosidase (EC 3.2.1.23). Kind of series: Relative rates of galactoside substrates with B. circulans β-galactosidase. Type of series: biochemical, Bacillus circulans. The conditions noted are these: Lac = 100. The text has this:
That β-galactosidase accepts the following substrates with the indicated, parenthesized relative rates: Lac (100), o-nitrophenyl β-galactoside (10.6), methyl β-galactoside (1).

Where [9] appears, read: Table 1, α(2,6)sialyltransferase EC 2.4.99.1.
[10] abbreviates: α(2,6)sialyltransferase, Paulson et al.
Setting [11] is: Table 1, α(2,6)sialyltransferase, rat liver.

“Also recorded” adds a separate entry of the source. Read-outs that look alike come from different tables or passages of the source.

Regarding `CC(=O)NC1C(O)CC(OP(=O)(O)OCC2OC(n3ccc(N)nc3=O)C(O)C2O)(C(=O)O)OC1C(O)C(O)CO` (stereo not shown) [CMP-sialic acid], the half-life result in series [1] was “only a few hours”.
Turning to `OC[C@H]1O[C@@H](O[C@H]2[C@H](O)[C@@H](O)C(O)S[C@@H]2CO)[C@H](O)[C@@H](O)[C@H]1O` (stereo partly shown) [Compound 3, Galβ1→4(5-thio)Glc], the “substrate for the sialyltransferase / sialylated in the reaction” value in series [2] is on record as “not a substrate; also recorded: not sialylated”.
For the compound `[N-]=[N+]=N[C@H]1C(O)O[C@H](CO)[C@@H](O[C@@H]2O[C@H](CO)[C@H](O)[C@H](O)[C@H]2O)[C@@H]1O` (stereo partly shown) [Compound 4, Galβ1→4(2-N3)Glc], the “substrate for the sialyltransferase / sialylated in the reaction” value in series [2] is “very weak substrate; also recorded: sialylated, but poorly”.
As to `CC(=O)N[C@H]1C(O)O[C@H](CO)[C@H](O)[C@@H]1O[C@@H]1O[C@H](CO)[C@H](O)[C@H](O)[C@H]1O` (stereo partly shown) [Galβ1→3GalNAc], in series [3], the Km (usually the substrate concentration at which the rate is half of its maximum) was 0.21 mM and the Vmax was 8.9 units/mg. In addition, the “substrate quality / sialylated product formation” value in series [4] is “No sialylated product was reported to be formed”. Further, the Km/Vmax result in series [5] is “very large”.
As to `CC(=O)N[C@H]1C(O)O[C@H](CO)[C@@H](O)[C@@H]1O[C@@H]1O[C@H](CO)[C@H](O)[C@H](O)[C@H]1O` (stereo partly shown) [Galβ1→3GlcNAc], in series [3], the Km is 65 mM and the Vmax is given as 4.4 units/mg. Besides, in series [4], the “substrate quality / sialylated product formation” value is “poor substrate”. Also, the Vmax in series [6] is on record as 1.16 units/mg.
Consider `CC(=O)N[C@H]1C(O)O[C@H](CO)[C@@H](O[C@@H]2O[C@H](CO)[C@H](O)[C@H](O)[C@H]2O)[C@@H]1O` (stereo partly shown) [Galβ1→4GlcNAc], for which the Vmax in series [7] (setting [9]) was 1 units/mg; in series [7] (setting [10]) it was 1.00; in series [3], 0.11 units/mg; in series [4] (setting [11]) it was 0.93 units/mg; in series [6] it was 0.75 units/mg. The Km in series [3] was 42 mM; in series [4] (Table 1, α(2,6)sialyltransferase, rat liver, from Weinstein et al.), 1.62 mM.
Regarding `OC[C@H]1O[C@@H](O[C@H]2[C@H](O)[C@@H](O)C(O)O[C@@H]2CO)[C@H](O)[C@@H](O)[C@H]1O` (stereo partly shown) [Galβ1→4Glc], the Vmax in series [7] (setting [9]) is given as 1.02 units/mg; in series [7] (setting [10]), 1.02; in series [3], 0.62 units/mg; in series [4] (setting [11]), 0.30 units/mg; in series [6], 0.91 units/mg. Besides, the Km in series [6] is 9.4 mM. The “relative rate as substrate” value in series [8] was 100.
Regarding `CC(=O)N[C@H]1C(O)O[C@H](CO[C@@H]2O[C@H](CO)[C@H](O)[C@H](O)[C@H]2O)[C@@H](O)[C@@H]1O` (stereo partly shown) [Galβ1→6GlcNAc], the Vmax in series [7] (setting [9]) was 0.03 units/mg; in series [7] (setting [10]), 0.03; in series [7] (α(2,6)sialyltransferase, low Vmax), 3%; in series [3], 0.24 units/mg. In series [3], the Km was 29 mM.
`CC(=O)N[C@H]1[C@H](O[C@H]2[C@@H](O)[C@@H](CO)O[C@@H](O[C@H]3[C@H](O)[C@@H](O)C(O)O[C@@H]3CO)[C@@H]2O)O[C@H](CO)[C@@H](O)[C@@H]1O[C@@H]1O[C@H](CO)[C@H](O)[C@H](O)[C@H]1O` (stereo partly shown) [lacto-N-tetraose, Galβ1→3GlcNAcβ1→3Galβ1→4Glc]: the Vmax in series [3] is 3.6 units/mg; in series [6] it was 1.00 units/mg.
Turning to `CO[C@@H]1O[C@H](CO)[C@H](O)[C@H](O)[C@H]1O` [methyl β-galactoside], the “relative rate as substrate” value in series [8] was 1.
Take `O=[N+]([O-])c1ccccc1O[C@@H]1O[C@H](CO)[C@H](O)[C@H](O)[C@H]1O` [o-nitrophenyl β-galactoside]: the “relative rate as substrate” value in series [8] stood at 10.6.
